Test results taken from ChEMBL document CHEMBL1201862, “PubChem BioAssay data set” (2004).
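96-well plates; 48 h exposure; 5 concentrations. Endpoints by linear interpolation between flanking doses. Not reached: highest tested concentration assigned. Abbreviation: GI50, concentration required for 50% inhibition of growth.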 Active and inactive are the calls of the source. Cut-off read from the data, not from the text of the source: active = GI50 up to about 1.1 µM and inactive = higher.

Columns and labels:
Test in all cases: growth of human tumour cells (NCI), 48 h
SNB-78 = tested on: SNB-78
HL-60 = tested on: HL-60
EKVX = tested on: EKVX
KM12 = tested on: KM12
A549 = tested on: A549
COLO 205 = tested on: COLO 205
IGROV-1 = tested on: IGROV-1
OVCAR-8 = tested on: OVCAR-8
SNB-19 = tested on: SNB-19
A498 = tested on: A498
786-0 = tested on: 786-0
HOP-62 = tested on: HOP-62
NCI-H460 = tested on: NCI-H460
NCI/ADR-RES = tested on: NCI/ADR-RES
MCF7 = tested on: MCF7
MDA-N = tested on: MDA-N
DU-145 = tested on: DU-145
BT-549 = tested on: BT-549
Hs-578T = tested on: Hs-578T
MDA-MB-231 = tested on: MDA-MB-231

SMILES | GI50 (SNB-78) | GI50 (HL-60) | GI50 (EKVX) | GI50 (KM12) | GI50 (A549) | GI50 (COLO 205) | GI50 (IGROV-1) | GI50 (OVCAR-8) | GI50 (SNB-19) | GI50 (A498) | GI50 (786-0) | GI50 (HOP-62) | GI50 (NCI-H460) | GI50 (NCI/ADR-RES) | GI50 (MCF7) | GI50 (MDA-N) | GI50 (DU-145) | GI50 (BT-549) | GI50 (Hs-578T) | GI50 (MDA-MB-231)
CCN(CC)CCSc1nc2cccc([N+](=O)[O-])c2[nH]1 | > 100 µM (inactive) | > 100 µM (inactive) | > 100 µM (inactive) | > 100 µM (inactive) | > 100 µM (inactive) | > 100 µM (inactive) | > 100 µM (inactive) | > 100 µM (inactive) | – | – | – | – | – | – | – | – | – | – | – | –
Cn1c2c([N+](=O)[O-])[se]nc2c(=O)n1-c1ccc([N+](=O)[O-])cc1 | 1.99 µM (inactive) | 0.615 µM (active) | 2.38 µM (inactive) | 4.51 µM (inactive) | 7.24 µM (inactive) | 1.67 µM (inactive) | 1.29 µM (inactive) | 1.02 µM (active) | 6.01 µM (inactive) | 11.4 µM (inactive) | 2.44 µM (inactive) | 3.97 µM (inactive) | 2.31 µM (inactive) | – | – | – | – | – | – | –
NC(=O)c1ncn(C2OC(CO)C(O)C2O)c1NC(=S)NC(=O)c1ccccc1 (stereo not given) | > 100 µM (inactive) | > 100 µM (inactive) | > 100 µM (inactive) | > 100 µM (inactive) | > 100 µM (inactive) | > 100 µM (inactive) | > 100 µM (inactive) | > 100 µM (inactive) | > 100 µM (inactive) | > 100 µM (inactive) | > 100 µM (inactive) | > 100 µM (inactive) | > 100 µM (inactive) | – | – | – | – | – | – | –
Cc1cc(C)nc(NS(=O)(=O)c2ccc(Nc3c4ccccc4nc4c(C(=O)N5CCN(CCOS(C)(=O)=O)CC5)ccc(Cl)c34)cc2)n1 | > 100 µM (inactive) | > 100 µM (inactive) | – | > 100 µM (inactive) | > 100 µM (inactive) | > 100 µM (inactive) | > 100 µM (inactive) | > 100 µM (inactive) | > 100 µM (inactive) | > 100 µM (inactive) | 43.7 µM (inactive) | > 100 µM (inactive) | > 100 µM (inactive) | – | – | – | – | – | – | –
CCCc1onc(CCC(=O)N(Cc2ccccc2)Cc2ccccc2)c1CC | > 100 µM (inactive) | > 100 µM (inactive) | – | > 100 µM (inactive) | – | > 100 µM (inactive) | > 100 µM (inactive) | – | – | > 100 µM (inactive) | > 100 µM (inactive) | > 100 µM (inactive) | > 100 µM (inactive) | – | – | – | – | – | – | –
CCCCCCCCCCCC1CCCC(C)N1 (stereo not given) | 73.3 µM (inactive) | 10.8 µM (inactive) | 47.3 µM (inactive) | 30.9 µM (inactive) | 88.7 µM (inactive) | 36 µM (inactive) | 61.2 µM (inactive) | 80 µM (inactive) | 76.2 µM (inactive) | 51.5 µM (inactive) | – | 43.3 µM (inactive) | 45.1 µM (inactive) | 72.4 µM (inactive) | 50 µM (inactive) | – | – | – | – | –
COc1cc(/C=C/C(=N\NC(N)=S)c2sc(NNC(C)=O)nc2C)ccc1O | – | 29.6 µM (inactive) | > 100 µM (inactive) | > 100 µM (inactive) | > 100 µM (inactive) | > 100 µM (inactive) | > 100 µM (inactive) | > 100 µM (inactive) | > 100 µM (inactive) | > 100 µM (inactive) | > 100 µM (inactive) | > 100 µM (inactive) | > 100 µM (inactive) | > 100 µM (inactive) | > 100 µM (inactive) | > 100 µM (inactive) | > 100 µM (inactive) | > 100 µM (inactive) | > 100 µM (inactive) | > 100 µM (inactive)
COC(=O)C1(NC(=O)C(CC(=O)OCc2ccccc2)NC(=O)OCc2ccccc2)CCCCCCC1 (stereo not given) | – | 11.3 µM (inactive) | 45.4 µM (inactive) | 48.3 µM (inactive) | 32.1 µM (inactive) | 25.8 µM (inactive) | 30 µM (inactive) | 26.4 µM (inactive) | 49.5 µM (inactive) | 13.6 µM (inactive) | 63.8 µM (inactive) | > 100 µM (inactive) | 30.7 µM (inactive) | 19.3 µM (inactive) | 31.8 µM (inactive) | 28.6 µM (inactive) | > 100 µM (inactive) | 23.9 µM (inactive) | 45.6 µM (inactive) | 56.4 µM (inactive)
CC1=C(Oc2ccccc2)C(CCC(=O)O)c2c(O)cc(Cl)c(O)c21 (stereo not given) | > 100 µM (inactive) | > 100 µM (inactive) | 71.9 µM (inactive) | > 100 µM (inactive) | > 100 µM (inactive) | > 100 µM (inactive) | > 100 µM (inactive) | > 100 µM (inactive) | > 100 µM (inactive) | > 100 µM (inactive) | > 100 µM (inactive) | > 100 µM (inactive) | > 100 µM (inactive) | – | – | – | – | – | – | –
